Test results published in patent publication US8980886B2, “Anthranilic acid derivatives” (Bayer Cropscience AG, priority 2010, dated 2015).
Read-outs that look alike come from different tables or passages of the source.

Experiments:
Phaedon cochleariae = test: Phaedon test (PHAECO spray treatment); format: in vivo; settings: 168 h, sprayed Chinese cabbage discs, after 7 days, read-out: activity in % (beetle larvae killed)
Experimental: (§1) Solvents: 78.0 parts by weight of acetone 1.5 parts by weight of dimethylformamide Emulsifier: 0.5 part by weight of alkylaryl polyglycol ether To produce a suitable preparation of active compound, 1 part by weight of active compound is mixed with the stated amount of solvents and emulsifier, and the concentrate is diluted with emulsifier-containing water to the desired concentration. Discs of Chinese cabbage (Brassica pekinensis) are sprayed with an active compound preparation of the desired concentration and, after drying, populated with larvae of the mustard beetle (Phaedon cochleariae). After 7 days, the activity in % is determined. 100% means that all beetle larvae have been killed; 0% means that none of the beetle larvae have been killed.

[1] = logP by HPLC on reversed-phase columns (C 18), EEC Directive 79/831 Annex V.A8; format: physicochemical; settings: reversed-phase C 18, acidic range pH 2.7; for chromatographic logP: reversed-phase HPLC column (C 18), pH 2.7, HPLC
Experimental: The logP values reported in the table above and in the Preparation Examples were determined in accordance with EEC Directive 79/831 Annex V.A8 by HPLC (High Performance Liquid Chromatography) on reversed-phase columns (C 18), with the following methods: The LC-MS determination in the acidic range is carried out at pH 2.7 using the mobile phases 0.1% aqueous formic acid and acetonitrile (contains 0.1% formic acid), linear gradient from 10% acetonitrile to 95% acetonitrile Calibration was carried out using unbranched alkan-2-ones (having from 3 to 16 carbon atoms) with known logP values (the logP values were determined by the retention times using linear interpolation between two successive alkanones).

Spodoptera frugiperda = Spodoptera frugiperda test (SPODFR spray treatment); format: in vivo; settings: foliar, 168 h, sprayed maize leaf discs, after 7 days, read-out: effect in % (caterpillars killed)
Experimental: as §1, with “maize leaves (Zea mays)” for “Chinese cabbage (Brassica pekinensis)”, “caterpillars” for “larvae”, “armyworm (Spodoptera frugiperda).” for “mustard beetle (Phaedon cochleariae).”, “effect” for “activity”, “determined” for “determined.”, “caterpillars” for “beetle larvae”

[2] = table of compounds, read-out: log P

| chromatographic logP [1, 2] | chromatographic logP ([1]; Preparation Examples) | Compound | also measured |
| --- | --- | --- | --- |
|  | 3.56 | CCOC(=O)c1cnc(Cn2nnc(C(F)(F)F)n2)nc1-c1ccccc1Cl [Example No. (X), ethyl 4-(2-chlorophenyl)-2-[5-(trifluoromethyl)-2H-tetrazol-2-yl]methylpyrimidine-5-carboxylate] |  |
| 2.75 |  | CNC(=O)c1cc(C#N)cc(C)c1NC(=O)c1cc(C(=O)Cn2nnc(C(F)(F)F)n2)cn1-c1ncccc1Cl [Compound 33] |  |
|  | 3.13 | CNC(=O)c1cc(Cl)cc(C)c1NC(=O)c1cnc(Cn2nnc(C(F)(F)F)n2)nc1-c1ccccc1Cl [N-[4-chloro-2-methyl-6-(methylcarbamoyl)phenyl]-4-(2-chlorophenyl)-2-{[5-(trifluoromethyl)-2H-tetrazol-2-yl]methyl}pyrimidine-5-carboxamide] |  |
| 3.31 |  | CNC(=O)c1cc(Cl)cc(C)c1NC(=O)c1cnc(Cn2nnc(C(F)(F)F)n2)nc1-c1ccccc1Cl [Compound 36] | pest or weed control at 100 g/ha (Phaedon cochleariae): 100%; pest or weed control at 100 g/ha (Spodoptera frugiperda): 100% |
|  | 2.28 | COC(=O)c1cc(C(=O)CBr)cn1-c1ncccc1Cl [Example No. XVI, methyl 4-(bromoacetyl)-1-(3-chloropyridin-2-yl)-1H-pyrrole-2-carboxylate] |  |
|  | 2.24 | O=C(Cn1nnc(C(F)(F)F)n1)c1cc(C(=O)O)n(-c2ncccc2Cl)c1 [Example No. IV-3, 1-(3-chloropyridin-2-yl)-4-{[5-(trifluoromethyl)-2H-tetrazol-2-yl]acetyl}-1H-pyrrole-2-carboxylic acid] |  |
|  | 2.63 | O=C(O)c1sc(Cn2nnc(C(F)(F)F)n2)nc1-c1ccccc1Cl [Example No. X (IV-2), 4-(2-chlorophenyl)-2-{[5-(trifluoromethyl)-2H-tetrazol-2-yl]methyl}-1,3-thiazole-5-carboxylic acid] |  |
|  | 3.32 | CCOC(=O)c1cnc(CBr)nc1-c1ccccc1Cl [Example No. (IX), ethyl 2-(bromomethyl)-4-(2-chlorophenyl)pyrimidine-5-carboxylate] |  |
|  | 2.97 | COC(=O)c1cc(C(=O)Cn2nnc(C(F)(F)F)n2)cn1-c1ncccc1Cl [Example No. XVII, methyl 1-(3-chloropyridin-2-yl)-4-{[5-(trifluoromethyl)-2H-tetrazol-2-yl]acetyl}-1H-pyrrole-2-carboxylate] |  |
|  | 1.74 | COC(=O)c1cc(C(C)=O)cn1-c1ncccc1Cl [Example No. XV, methyl 4-acetyl-1-(3-chloropyridin-2-yl)-1H-pyrrole-2-carboxylate] |  |
|  | 4.12 | COC(=O)c1sc(CBr)nc1-c1ccccc1Cl [Example No. XII, methyl 2-(bromomethyl)-4-(2-chlorophenyl)-1,3-thiazole-5-carboxylate] |  |
|  | 3.6 | COC(=O)c1sc(Cn2nnc(C(F)(F)F)n2)nc1-c1ccccc1Cl [Example No. XIII, methyl 4-(2-chlorophenyl)-2-{[5-(trifluoromethyl)-2H-tetrazol-2-yl]methyl}-1,3-thiazole-5-carboxylate] |  |
|  | 2.5 | O=C(O)c1cnc(Cn2nnc(C(F)(F)F)n2)nc1-c1ccccc1Cl [Example No. (IV-1), 4-(2-chlorophenyl)-2-[5-(trifluoromethyl)-2H-tetrazol-2-yl]methylpyrimidine-5-carboxylic acid] |  |

Continued, compound first:

| Compound | chromatographic logP [1, 2] | chromatographic logP ([1]; Preparation Examples) | also measured |
| --- | --- | --- | --- |
| CNC(=O)c1cc(Cl)cc(C)c1NC(=O)c1sc(Cn2nnc(C(F)(F)F)n2)nc1-c1ccccc1Cl [Compound 10] | 3.63 |  | pest or weed control at 100 g/ha (Phaedon cochleariae): 100% |
| Cc1cc(Br)cc(C(=O)NC(C)C)c1NC(=O)c1nc(Cn2nnc(C(F)(F)F)n2)sc1-c1ccccc1Cl [Compound 5] | 4.48 |  |  |
| CNC(=O)c1cc(C#N)cc(C)c1NC(=O)c1nc(Cn2nnc(C(F)(F)F)n2)sc1-c1ccccc1Cl [Compound 24] | 3.46 |  |  |
| Cc1cc(Br)cc(C(=O)NC(C)(C)C)c1NC(=O)c1sc(Cn2nnc(C(F)(F)F)n2)nc1-c1ccccc1Cl [Compound 26] | 4.69 |  | pest or weed control at 100 g/ha (Phaedon cochleariae): 100%; pest or weed control at 100 g/ha (Spodoptera frugiperda): 100% |
| Cc1cc(Br)cc(C(=O)NC(C)C)c1NC(=O)c1nc(Cn2nnc(C(F)(F)F)n2)oc1-c1ccccc1Cl [Compound 23] | 4.21 |  |  |
| Cc1cc(C#N)cc(C(=O)NC(C)(C)C)c1NC(=O)c1nc(Cn2nnc(C(F)(F)F)n2)oc1-c1ccccc1Cl [Compound 7] | 3.95 |  |  |
| Cc1cc(Br)cc(C(=O)NC(C)(C)C)c1NC(=O)c1nc(Cn2nnc(C(F)(F)F)n2)sc1-c1ccccc1Cl [Compound 29] | 4.83 |  |  |
| CNC(=O)c1cc(C#N)cc(C)c1NC(=O)c1sc(Cn2nnc(C(F)(F)F)n2)nc1-c1ccccc1Cl [Compound 14] | 3.19 |  | pest or weed control at 100 g/ha (Spodoptera frugiperda): 100% |
| Cc1cc(Cl)cc(C(=O)NC(C)C)c1NC(=O)c1nc(Cn2nnc(C(F)(F)F)n2)sc1-c1ccccc1Cl [Compound 2] | 4.34 |  |  |
| CNC(=O)c1cc(Cl)cc(C)c1NC(=O)c1nc(Cn2nnc(C(F)(F)F)n2)oc1-c1ccccc1Cl [Compound 16] | 3.65 |  |  |
| Cc1cc(C#N)cc(C(=O)NC(C)C)c1NC(=O)c1nc(Cn2nnc(C(F)(F)F)n2)oc1-c1ccccc1Cl [Compound 15] | 3.69 |  |  |
| Cc1cc(Cl)cc(C(N)=O)c1NC(=O)c1nc(Cn2nnc(C(F)(F)F)n2)oc1-c1ccccc1Cl [Compound 20] | 3.45 |  |  |
| CNC(=O)c1cc(C#N)cc(C)c1NC(=O)c1nc(Cn2nnc(C(F)(F)F)n2)oc1-c1ccccc1Cl [Compound 6] | 3.25 |  |  |
| CNC(=O)c1cc(Br)cc(C)c1NC(=O)c1nc(Cn2nnc(C(F)(F)F)n2)sc1-c1ccccc1Cl [Compound 1] | 3.98 |  |  |
| Cc1cc(Cl)cc(C(=O)NC(C)(C)C)c1NC(=O)c1nc(Cn2nnc(C(F)(F)F)n2)oc1-c1ccccc1Cl [Compound 18] | 4.46 |  |  |
| CNC(=O)c1cc(Br)cc(C)c1NC(=O)c1sc(Cn2nnc(C(F)(F)F)n2)nc1-c1ccccc1Cl [Compound 12] | 3.73 |  | pest or weed control at 100 g/ha (Phaedon cochleariae): 83% |
| CNC(=O)c1cc(Cl)cc(C)c1NC(=O)c1cn(Cc2ccc(C(F)(F)F)nc2)nc1-c1ccccc1Cl [Compound 4] | 3.12 |  |  |
| Cc1cc(Br)cc(C(=O)NC(C)(C)C)c1NC(=O)c1nc(Cn2nnc(C(F)(F)F)n2)oc1-c1ccccc1Cl [Compound 22] | 4.52 |  |  |
| Cc1cc(Cl)cc(C(=O)NC(C)C)c1NC(=O)c1nc(Cn2nnc(C(F)(F)F)n2)oc1-c1ccccc1Cl [Compound 19] | 4.11 |  |  |
| Cc1cc(Cl)cc2c(=O)oc(-c3cnc(Cn4nnc(C(F)(F)F)n4)nc3-c3ccccc3Cl)nc12 [6-chloro-2-[4-(2-chlorophenyl)-2-{[5-(trifluoromethyl)-2H-tetrazol-2-yl]methyl}pyrimidin-5-yl]-8-methyl-4H-3,1-benzoxazin-4-one] |  | 5.16 |  |
| CNC(=O)c1cc(C#N)cc(C)c1NC(=O)c1cn(Cc2ccc(C(F)(F)F)nc2)nc1-c1ccccc1Cl [Compound 31] | 2.78 |  | log P ([1]; HPLC, table of compounds): 2.83; pest or weed control at 100 g/ha (Spodoptera frugiperda): 100% |
| Cc1cc(C#N)cc(C(=O)NC(C)(C)C)c1NC(=O)c1nc(Cn2nnc(C(F)(F)F)n2)sc1-c1ccccc1Cl [Compound 28] | 4.29 |  |  |
| CNC(=O)c1cc(Br)cc(C)c1NC(=O)c1nc(Cn2nnc(C(F)(F)F)n2)oc1-c1ccccc1Cl [Compound 21] | 3.72 |  |  |
